{"source": "patent US10188612B2", "about": "“Pharmaceutical compositions for inhalation” (VECTURA LIMITED, priority 2000, dated 2019)", "test": "Standard dissolution test (sintered glass disc over stirred reservoir of deionised water)", "type": "physicochemical", "details": "FIG. 2", "method": "The samples were analysed in a Cecil Aquarius CE7200 ultraviolet spectrophotometer at a wavelength of 200 nm. The concentration of the samples was calculated with a previously prepared calibration graph and the concentration versus time was plotted.\nThe apparatus used is shown in FIG. 1 and comprises a 195 cm^3 reservoir (1) filled with deionised water (2) and having an inlet port (3) and an outlet port (4). A sintered glass disc (5) of approximately 50 mm diameter and 3 mm depth occupies an opening at the top of the reservoir (1) and sits horizontally in contact with the water (2). The water in the reservoir is stirred by a magnetic stirrer (6).\nA known mass of approximately 1 mg of the formulation (7) to be tested is placed on the sinter and a timer is started. At various times, 1 cm^3 samples of the water are removed from the reservoir and are immediately replaced with 1 cm^3 deionised water to maintain the volume in the reservoir. The concentration of the active substance in the 1 cm^3 samples is determined by a suitable method.", "data": [{"smiles": "C[N+]1(C)CCC(OC(=O)C(O)(c2ccccc2)C2CCCC2)C1", "note": "(centres unmarked) [glycopyrrolate]", "values": [{"measurement": "time at which the maximum concentration is achieved", "result": 10, "unit": "min"}, {"measurement": "concentration of active substance in the reservoir at the first time point", "setting": "at 5 minutes, UV at 200 nm", "result": "greater than 10 mg/l"}]}]}
